Laboratory results from ChEMBL document CHEMBL1147476, “Synthesis and evaluation of aminophosphinic acid derivatives as inhibitors of renal dipeptidase” (Bioorg Med Chem Lett, 2004).

Target: T1, Dipeptidase 1 (Homo sapiens, UniProt P16444)
T1 sequence (P16444 whole entry): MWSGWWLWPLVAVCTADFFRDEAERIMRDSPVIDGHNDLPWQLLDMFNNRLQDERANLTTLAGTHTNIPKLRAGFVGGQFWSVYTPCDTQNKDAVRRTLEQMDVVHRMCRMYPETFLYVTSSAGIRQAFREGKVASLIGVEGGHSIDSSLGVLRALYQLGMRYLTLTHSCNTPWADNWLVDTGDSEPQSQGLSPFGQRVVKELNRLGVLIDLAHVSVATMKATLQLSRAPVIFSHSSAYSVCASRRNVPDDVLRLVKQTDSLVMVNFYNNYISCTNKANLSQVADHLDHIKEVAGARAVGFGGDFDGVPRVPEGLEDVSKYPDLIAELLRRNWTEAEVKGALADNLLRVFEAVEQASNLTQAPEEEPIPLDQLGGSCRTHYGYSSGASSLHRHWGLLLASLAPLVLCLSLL
Assay: Concentration required to inhibit renal dipeptidase (RDP) by 50% in crude lysates prepared from human colon cancer

SMILES | IC50
NC(CC1CCCCC1)P(=O)(O)C/C(=C/c1ccc(I)cc1)C(=O)O (centres undefined) | 25 nM
NC(CC1CCCCC1)P(=O)(O)C/C(=C\c1ccc(F)cc1)C(=O)O (centres undefined) | 5 nM
NC(CC1CCCCC1)P(=O)(O)C/C(=C/c1ccc(F)cc1)C(=O)O (centres undefined) | 15 nM
Nc1ccc(/C=C(/CP(=O)(O)C(N)CC2CCCCC2)C(=O)O)cc1 (centres undefined) | 150 nM
NC(CC1CCCCC1)P(=O)(O)C/C(=C\c1ccc(Br)cc1)C(=O)O (centres undefined) | 6 nM
NC(CC1CCCCC1)P(=O)(O)C/C(=C\c1ccccc1I)C(=O)O (centres undefined) | 100 nM
NC(CC1CCCCC1)P(=O)(O)C/C(=C/c1ccccc1I)C(=O)O (centres undefined) | 1000 nM
NC(CC1CCCCC1)P(=O)(O)C/C(=C/c1ccc(C(F)(F)F)cc1)C(=O)O (centres undefined) | 200 nM

Next, values leading:

IC50 | SMILES
250 nM | NC(CC1CCCCC1)P(=O)(O)C/C(=C/c1cccc(I)c1)C(=O)O (centres undefined)
45 nM | NC(CC1CCCCC1)P(=O)(O)C/C(=C\c1cccc(I)c1)C(=O)O (centres undefined)
200 nM | NC(CC1CCCCC1)P(=O)(O)C/C(=C/c1ccc(Cl)c(Cl)c1)C(=O)O (centres undefined)
20 nM | NC(CC1CCCCC1)P(=O)(O)C/C(=C\c1ccc(Cl)c(Cl)c1)C(=O)O (centres undefined)
70 nM | Nc1ccc(/C=C(\CP(=O)(O)C(N)CC2CCCCC2)C(=O)O)cc1 (centres undefined)
30 nM | NC(CC1CCCCC1)P(=O)(O)C/C(=C\c1ccc(F)c(Cl)c1)C(=O)O (centres undefined)
8 nM | NC(CC1CCCCC1)P(=O)(O)C/C(=C\c1ccc(I)cc1)C(=O)O (centres undefined)
40 nM | NC(CC1CCCCC1)P(=O)(O)C/C(=C\c1ccc(F)c(Br)c1)C(=O)O (centres undefined)
30 nM | NC(CC1CCCCC1)P(=O)(O)C/C(=C/c1ccc(Br)cc1)C(=O)O (centres undefined)
3000 nM | NC(CC1CCCCC1)P(=O)(O)C/C(=C/c1ccc(F)c(Br)c1)C(=O)O (centres undefined)
350 nM | NC(CC1CCCCC1)P(=O)(O)C/C(=C/c1ccc(F)c(Cl)c1)C(=O)O (centres undefined)
